Experimental data from ChEMBL document CHEMBL5143581, “Design, synthesis and molecular docking studies of imidazole and benzimidazole linked ethionamide derivatives as inhibitors of InhA and antituberculosis agents” (Bioorg Med Chem Lett, 2022).
Converted amounts (≈) assume the structure as drawn.

Legend:
Vero = assay: Cytotoxicity in African green monkey Vero cells assessed as reduction in cell viability; format: toxicity, cell-based; conditions: chlorocebus sabaeus
[1] = system: Mycobacterium tuberculosis; assay: Antimycobacterial activity against Mycobacterium tuberculosis H37Rv; format: functional

SMILES | Activity (Vero) [µM] | MIC [1] [µM]
Cn1ccnc1NC(=O)c1cc(C(N)=S)ccn1 | > 100 | 15.1 (≈ 3.95 µg/mL)
Cc1ccc2c(c1)nc(NC(=O)c1cc(C(N)=S)ccn1)n2C | > 100 | 3.14 (≈ 1.02 µg/mL)
COc1ccc2c(c1)nc(NC(=O)c1cc(C(N)=S)ccn1)n2C | > 100 | 0.35 (≈ 0.119 µg/mL)
Cc1cn(C)c(NC(=O)c2cc(C(N)=S)ccn2)n1 | > 100 | 13.6 (≈ 3.75 µg/mL)
Cn1c(NC(=O)c2cc(C(N)=S)ccn2)nc2cc(O)ccc21 | > 100 | 0.27 (≈ 0.0884 µg/mL)
Cn1cc(O)nc1NC(=O)c1cc(C(N)=S)ccn1 | > 100 | 0.97 (≈ 0.269 µg/mL)
NC(=S)c1ccnc(C(=O)Nc2nc3ccccc3[nH]2)c1 | > 100 | 12.6 (≈ 3.73 µg/mL)
Cn1c(NC(=O)c2cc(C(N)=S)ccn2)nc2ccccc21 | > 100 | 6.52 (≈ 2.03 µg/mL)
NC(=S)c1ccnc(C(=O)Nc2ncc[nH]2)c1 | > 100 | 23.8 (≈ 5.9 µg/mL)
Cn1cc(C#N)nc1NC(=O)c1cc(C(N)=S)ccn1 | > 100 | 1.24 (≈ 0.355 µg/mL)
O=C(O)c1cn(C2CC2)c2cc(N3CCNCC3)c(F)cc2c1=O [CIPROFLOXACIN] | > 100 | 4.73 (≈ 1.57 µg/mL)
CC[C@@H](CO)NCCN[C@@H](CC)CO [ETHAMBUTOL] | > 100 | 5.01 (≈ 1.02 µg/mL)
CCc1cc(C(N)=S)ccn1 [ETHIONAMIDE] | > 100 | 6.63 (≈ 1.1 µg/mL)
NNC(=O)c1ccncc1 [ISONIAZID] | > 100 | 0.36 (≈ 0.0494 µg/mL)
NC(=O)c1cnccn1 [PYRAZINAMIDE] | > 100 | 3.12 (≈ 0.384 µg/mL)
